Numbers after ± are expanded uncertainties.
Assays:
[1] = Crystal; DTA
[2] = Molar enthalpy of transition or fusion; conditions: Crystal; DSC

SMILES | Normal melting temperature [1] | Molar enthalpy of transition or fusion [2]
CC1=CC(=O)C(C(C)C)=CC1=O [2-isopropyl-5-methylcyclohexa-2,5-diene-1,4-dione] | 43.6 ± 0.5 °C | –
O=c1cc(O)c2ccccc2o1 [4-hydroxycoumarin] | 215.2 ± 0.39 °C | –
CC(=O)N[C@@H](CS)C(=O)O [N-acetyl-L-cysteine] | – | 7.67 ± 0.167 kcal/mol
CC(C)Cc1ccc(C(C)C(=O)O)cc1 (stereo not given) [ibuprofen] | 74.6 ± 0.39 °C | –
NNC(=O)c1ccncc1 [isonicotinic acid hydrazide] | 172.69 ± 1.1 °C | –

Source: the NIST ThermoML archive (doi:10.1016/j.fluid.2015.03.053)
